In patent publication US4732893A, “Amino-anthracenediones-platinum complexes useful as anticancer compounds” (priority 1984, dated 1988):

Assays:
L-1210 leukemia = assay: first experiment: L-1210 leukemia in mice, T/C percentage and long term survival; type: in vivo; settings: for Survival after 60 days: survivors/animals
Description: Pt(DMSO)Cl2 ].2HCl.H2 O (coded BBR 1651), water soluble, and cis-[1,4-bis-[2-(2-hydroxyethylamino)ethylamino]-5,8-dihydroxy-9,10-anthracenedione.PtCl2 ].2HCl.H2 O (coded BBR 1734) are tested in comparison with equimolecular dosages of 1,4-bis-[2-(2-hydroxyethylamino)ethylamino]-5,8-dihydroxy-9,10-anthracenedione (DHAQ.2HCl) and with c-DDP dosed at 7 mg/kg, against L-1210 leukemia in mice. Groups of 10 animals, treated with intraperitoneal injections of […] L-1210 cells, have been used at each dosage level, evaluating T/C percentage and long term survival, i.e. more than sixty days.
(§1) T/C percentage represents the percentual ratio of the mean survival time of the treated animals in comparison with the mean survival time of the control animals according to the methods described in "Anthracycline antibiotics" H. S. E. R Rhadem Edit., Academic Press, 1982.
(§2) LTS represents number of long-term (over 60 days) surviving animals with no pathologic episodes (i.e. cured animals).
A percentage of T/C over 120 indicates antitumoral activity; a percentage of T/C under 85 indicates toxicity.

[1] = tested on: L-1210 leukemia sensitive to c-DDP; assay: second experiment: L-1210 leukemia sensitive to c-DDP, T/C, LTS, TOX; type: in vivo, mice; settings: for percentage of survivors at 60 days: 8.7.10^-6 mol/kg; for TOX (3): toxic deaths
Excerpt: as §1, §2
(§3) (1) T/C: Mean survival time of treated mice/mean survival time of control
(untreated) mice × 100.
Mean survival time of treated mice is referred to dying animals only.
(2) LTS: Longterm survivors (>60 days), i.e. cured animals. Mean survival
(§4) (3) TOX: Toxic deaths are referred to animals dead before control animals
(§5) or to animals showing macroscopic toxic symptoms without tumor.
The data reported in Table 2 are the means of two subsequent experiments.

[2] = tested on: c-DDP resistant L-1210 leukemia; assay: c-DDP resistant L-1210 leukemia, T/C, LTS, TOX; type: in vivo, mice; settings: for TOX (3): toxic deaths
Excerpt: as §1, §3
(untreated) mice × 100. Mean survival time of treated mice is
referred to dying animals only. N.ev.: not evaluable as consequence of th
(2) LTS: Longterms survivors (>30 days), i.e. cured animals.
as §4, §5

[3] = 1.93 × 10^-6 moles/kg (BBR 1734 1.55, BBR 1651 1.85, DHAQ.2HCl 1.00 mg/kg)
[4] = 3.86 × 10^-6 moles/kg (BBR 1734 3.10, BBR 1651 3.70, DHAQ.2HCl 2.00 mg/kg)
[5] = 7.73 × 10^-6 moles/kg (BBR 1734 6.20, BBR 1651 7.40, DHAQ.2HCl 4.00 mg/kg)
[6] = 1.93 × 10^-6 moles/kg (DHAQ.2HCl 1.0, BBR 1651 1.85 mg/kg)
[7] = 3.86 × 10^-6 moles/kg (DHAQ.2HCl 2.0, BBR 1651 3.7 mg/kg)
[8] = 7.73-8.68 × 10^-6 moles/kg (DHAQ.2HCl 4.0-4.5, BBR 1651 7.4-8.32 mg/kg)
[9] = 12.93 × 10^-6 moles/kg (DHAQ.2HCl 6.7, BBR 1651 12.40 mg/kg)
[10] = 19.3 × 10^-6 moles/kg (DHAQ.2HCl 10.0, BBR 1651 18.5 mg/kg)
[11] = 19.3 × 10^-6/kg (BBR 1651 18.5 mg/kg)
[12] = 28.95 × 10^-6/kg (BBR 1651 27.75 mg/kg)
[13] = 5.79 × 10^-6/kg (DHAQ-2HCl 3.0 mg/kg)
[14] = 8.68 × 10^-6/kg (DHAQ-2HCl 4.5 mg/kg)

CS(C)=O.CS(C)=O.Cl.Cl.O.O=C1c2c(O)ccc(O)c2C(=O)c2c(NCCNCCO)ccc(NCCNCCO)c21.[Cl][Pt][Cl] [BBR 1651, cis-[1,4-bis-[2-(2-hydroxyethylamino)ethylamino]-5,8-dihydroxy-9,10-anthracenedione. Pt(DMSO)Cl2].2HCl.H2 O]
% T/C (L-1210 leukemia; [3]): 195%
Survival after 60 days (L-1210 leukemia; [3]): 0/10
% T/C (L-1210 leukemia; [4]): 220%
Survival after 60 days (L-1210 leukemia; [4]): 1/10
Survival after 60 days (L-1210 leukemia; [5]): 7/10
antitumor activity (in words) (L-1210 leukemia; versus c-DDP and ligand alone): good activities with better results than those obtained using the known c-DDP and the aminoanthracenedione ligand alone
T/C ([1]; 1.39.10^-6 g/atom of Pt): 200
LTS (2) (>60 days) [1, 6]: 0/10
T/C (1) % [1, 6]: 200%
LTS (2) (>60 days) [1, 7]: 1/10
T/C (1) % [1, 7]: 221%
LTS (2) (>60 days) [1, 8]: 15/20
percentage of survivors at 60 days [1]: 90%
LTS (2) (>60 days) [1, 9]: 9/10
LTS (2) (>60 days) [1, 10]: 9/10
longterms survivors (>60 days; i.e. cured animals) ([1]; equal platinum content): 9
increase of the dead animals before control animals ([1]; in words): did not cause any increase of the dead animals before control animals
activity compared with c-DDP (in words) ([1]; mouse, in vivo): extremely more active than the known c-DDP
TOX (3) [1, 6]: 0/10
TOX (3) [1, 7]: 0/10
TOX (3) [1, 8]: 0/20
TOX (3) [1, 9]: 0/10
LTS (2) (>30 days) [2, 11]: 3/10
T/C (1) % [2, 11]: 186%
LTS (2) (>30 days) [2, 12]: 4/10
activity (in words) ([2]; animals injected with cis-platin resistant leukemia cells): active drug
TOX (3) [2, 11]: 0/10
TOX (3) [2, 12]: 1/10

O=C1c2c(O)ccc(O)c2C(=O)c2c(NCCNCCO)ccc(NCCNCCO)c21 [DHAQ.2HCl, 1,4-bis-[2-(2-hydroxyethylamino)ethylamino]-5,8-dihydroxy-9,10-anthracenedione]
% T/C (L-1210 leukemia; [3]): 185%
% T/C (L-1210 leukemia; [4]): 214%
Survival after 60 days (L-1210 leukemia; [4]): 0/10
Survival after 60 days (L-1210 leukemia; [5]): 2/10
% T/C (L-1210 leukemia; 7.73 × 10^-6 moles/kg (DHAQ.2HCl 4.00 mg/kg)): 235%
LTS (2) (>60 days) [1, 6]: 0/10
T/C (1) % [1, 6]: 185%
LTS (2) (>60 days) [1, 7]: 0/10
T/C (1) % [1, 7]: 214%
T/C (1) % ([1]; 7.73-8.68 × 10^-6 moles/kg (DHAQ.2HCl 4.0-4.5 mg/kg), range in parenthesis): 302 (235-369) %
LTS (2) (>60 days) [1, 8]: 8/20
percentage of survivors at 60 days [1]: 10%
T/C (1) % ([1]; 12.93 × 10^-6 moles/kg (DHAQ.2HCl 6.7 mg/kg)): 262%
LTS (2) (>60 days) [1, 9]: 4/10
T/C (1) % ([1]; 19.3 × 10^-6 moles/kg (DHAQ.2HCl 10.0 mg/kg)): 231%
LTS (2) (>60 days) [1, 10]: 1/10
increase of death rate in comparison with the control animals ([1]; Higher doses of DHAQ): up to 90%
TOX (3) [1, 6]: 0/10
TOX (3) [1, 7]: 0/10
TOX (3) [1, 8]: 2/20
TOX (3) [1, 9]: 5/10
TOX (3) [1, 10]: 9/10
LTS (2) (>30 days) [2, 13]: 1/10
T/C (1) % [2, 13]: 145%
LTS (2) (>30 days) [2, 14]: 2/10
T/C (1) % [2, 14]: 168%
TOX (3) [2, 13]: 0/10
TOX (3) [2, 14]: 0/10
